Reference: the NIST ThermoML archive (doi:10.1016/j.jct.2013.09.035)

Conditions: Liquid, Vibrating tube method

FCC(F)(F)F [1,1,1,2-tetrafluoroethane]
Conditions	mass density [kg/m3]
283.25 K, 60000 kPa	1416.44
283.26 K, 1000 kPa	1265.88
283.26 K, 5000 kPa	1282.35
283.26 K, 10000 kPa	1300.86
283.26 K, 20000 kPa	1331.64
283.26 K, 40000 kPa	1379.61
283.26 K, 80000 kPa	1446.35
302.84 K, 20000 kPa	1276.99
302.84 K, 40000 kPa	1333.11
302.84 K, 80000 kPa	1408.64
302.85 K, 1000 kPa	1190.34
302.85 K, 5000 kPa	1214.03
302.85 K, 10000 kPa	1238.45
302.85 K, 60000 kPa	1374.79
322.62 K, 5000 kPa	1140.59
322.63 K, 10000 kPa	1174.6
322.63 K, 20000 kPa	1224.02
322.64 K, 40000 kPa	1290.68
322.64 K, 60000 kPa	1338.04
322.64 K, 80000 kPa	1375.39
342.56 K, 5000 kPa	1047.23
342.56 K, 10000 kPa	1098.48
342.56 K, 20000 kPa	1163.35
342.56 K, 40000 kPa	1242.84
342.57 K, 60000 kPa	1296.48
342.57 K, 80000 kPa	1337.6
362.57 K, 5000 kPa	924.58
362.58 K, 10000 kPa	1014.86
362.58 K, 20000 kPa	1102.88
362.58 K, 40000 kPa	1197.86
362.58 K, 60000 kPa	1258.31
362.58 K, 80000 kPa	1303.78
